Results: patent publication US20100248229A1, “INVITRO HUMAN EMBRYONIC MODEL AND A METHOD THEREOF” (Stempeutics Research Private Limited, priority 2007, published 2010)
“Also recorded” adds a separate entry of the source.

Key:
EBs = assay: In vitro 3-D embryo implantation model: attachment and outgrowth of EBs; type: cell-based, human
From the text: An in vitro 3-dimensional (3-D) model/system for embryo implantation employing EBs in place of embryos was developed. The EBs collected on different days were subjected to implantation/attachment on the artificial substratum/surface.
To make this artificial surface regular tissue culture dishes or organ culture dishes were coated with about 1 to 2 mm thick coating of 0.5 to 1% low melting or high melting agarose in DPBS. A few wells of about 1 to 2 mm diameter are created using sterile paper disks, preferable in the center of the dish, which were removed after the agarose solidifies. Alternatively a horizontal tube like structure can be created by casting the gel over a fine glass capillary, which can be withdrawn as the agarose solidifies. This cavity/depression or tube like structure of agarose is then coated with matrix proteins like matrigel, collagen, fibronectin, laminin, gelatin etc. The coated agarose dishes were also layered with mouse or human endometrial stromal cells obtained from primary cultures or cell lines. The EBs were placed carefully in the cavity created or flushed inside the tube using a bent pasture pipette. The cells were cultured in normal standard EB media.
The EBs adhere and outgrows spreading out as a monolayer of cells on the extracellular matrix. Some cells invaded the surrounding agarose by day 10. A failure to implant/outgrow within ten days on this matrix after exposure to the drug/molecule indicates an abnormality. However, some drugs/could also support/enhance the process of attachment and outgrowth of the EBs. These molecules were screened for several other possible applications, though these may not necessarily be safe for embryonic development.
Four day old EBs were cultured on agarose and fibronectin coated surfaces. […] However, as Y27632 supports and enhances outgrowth, the effect of this drug on the expression profiles of the lineage markers and other genes needs to be screened for evaluating effect on normal development.
The model consists of a culture plate which is coated with Low melting (0.5%) agarose, A well of various depths is created in the agarose by various means eg: putting sterile filter paper disks while casting the gel and removing them latter. The gel is then coated with extracellular matrix components like fibronectin, collagen, laminin, etc. Human endometrial stromal fibroblast cell line CRL4003 is grown on this extracellular matrix as a monolayer. The spherical embryoid bodies or embryo like entities at day 4.5 are injected or pipetted into these cavities. The attachment is allowed in a culture media regularly used for hESC culture, without FGF2 supplementation (FIG. 1).
3. Lineage induction studies: The embryoid bodies after attachment to the implantation site differentiates to all lineages.
Method: Spherical Cytic EBs were collected on day 4.5 and exposed to the continuous presence of Y27632 (various doses were used). […] The control cytic EB had however just attached with smaller area of outgrowth showing that this dose of Y27632 can help in initial implantation of embryo during pregnancy.

[1] = tested on: EBs derived from hESC line HUES9; assay: Immunofluorescence localization of HMGB1 and Brachury in EBs; type: cell-based, human; details: for Brachury protein expression (immunofluorescence): day 4.5, normal EBs positive
From the text: Exposure of EBs to LPS: EBs at day-2.5 were exposed to 12.5 pg/ml of Endotoxin/lipopolysaccharide (LPS) (Sigma) for 48 hrs supplemented in culture medium. […] Post exposure, the control and endotoxin treated EBs were divided in two groups. One group was lysed in TRIZOL for RNA isolation and the other group was fixed in 4% paraformaldehyde for immunofluorescence. The expression profile of the ectoderm, endoderm, mesoderm and trophectoderm lineage markers like PHI-tubulin, GATA4, BMP2, Brachury and β-hCG etc. were studied by RT-PCR and Immunofluorescence. The expression of the LPS-inducible and pluripotency related DNA binding protein HMGB1 was also studied in both the control and treated EBs.
Immunofluorescence and Cell counting: HESCs were grown on coverslips coated with MEFs and then fixed with 4% paraformaldehyde and 5% sucrose (Sigma) followed by permeabilization in 0.2% Triton X100 (Sigma). The slides were then incubated with primary antibodies 1:500 dilution of SSEA4 (Chemicon, Calif., USA), 5 ug/ml Nanog (Santa Cruz Biotechnology, CA, USA), 10 μg/ml Brachury (R&D Systems Inc. Minneapolis, USA), and 1.5 μg/ml HMGB1 (Sigma) overnight at 4° C. After washing thrice with PBS, fluorescein isothiocyanate/Texas red-labeled Secondary antibodies against the primary goat/rabbit/mouse were added as 1:500 dilutions and incubated for 2 hours. DAPI (Sigma) was used for nuclear staining and then washed with PBS. The negative controls were done without primary antibodies. Slides were mounted with DABCC (Sigma) and images were acquired using Nikon Eclipse 90i microscope (Nikon Corporation, Japan) and Image-Pro Express software (Media Cybernetics, Inc, Silver Spring, Md.). The results were then compared with the control cells (non-LPS treated EBs). To count the number of cells per EB, the number of DAPI stained nuclei were counted in 10 each of the control and LPS treated EBs.

lipopolysaccharide [LPS]
attachment and outgrowth of EBs (EBs; four day old EBs on agarose and fibronectin coated surfaces, 15 pg/ml and above): completely inhibited | degeneration, attachment and outgrowth of EBs in implantation model (EBs; high dose, 48 hrs): degeneration of the EBs, and they failed to attach and outgrow | ability of attached EBs to give rise to all lineages (EBs; lineage induction studies, in presence of the compound): compromised | Brachury protein expression (immunofluorescence) ([1]; 12.5 pg/ml for 48 hrs): no signals | Brachury protein expression (immunofluorescence) ([1]; 12.5 pg/ml for 48 hrs, listed as lipopolysaccharides): loss of expression | localization of HMGB1 (immunofluorescence) ([1]; 12.5 pg/ml for 48 hrs, normal EBs lacked signals): cytoplasmic localization; also recorded: localized in the cytoplasm | Brachury expression on day 9.5 ([1]; EBs exposed to 12.5 pg/ml for 48 hrs, tested on day 9.5): did not show a positive signal
